Measured values: PubChem BioAssay (NCI)
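Exposure lasted 48 hours, with cells grown in 96-well plates and compounds tested at five concentrations. TGI denotes the concentration required for complete inhibition of growth.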 Where a SMILES comes first, the peptide text is derived from it. The star is where a group is joined. Boc = CC(C)(C)OC(=O)*; OBn = c1ccc(CO*)cc1; Bn = c1ccc(C*)cc1

Experiments:
Assay in all cases: NCI tumour cell line growth inhibition, 48 h
SNB-75 CNS = system: SNB-75 CNS
SK-MEL-5 melanoma = system: SK-MEL-5 melanoma
MDA-MB-231 breast = system: MDA-MB-231 breast
ACHN renal = system: ACHN renal
HCT-15 colon = system: HCT-15 colon
MDA-MB-435 = system: MDA-MB-435
786-0 renal = system: 786-0 renal
HOP-92 NSCLC = system: HOP-92 NSCLC
CAKI-1 renal = system: CAKI-1 renal
NCI/ADR-RES ovarian = system: NCI/ADR-RES ovarian

| Structure (SMILES) | TGI (SNB-75 CNS) | TGI (SK-MEL-5 melanoma) | TGI (MDA-MB-231 breast) | TGI (ACHN renal) | TGI (HCT-15 colon) | TGI (MDA-MB-435) | TGI (786-0 renal) | TGI (HOP-92 NSCLC) | TGI (CAKI-1 renal) | TGI (NCI/ADR-RES ovarian) |
| --- | --- | --- | --- | --- | --- | --- | --- | --- | --- | --- |
| CN(CCN(C)Cc1ccc(Cl)c(Cl)c1)CCN1CCCC1 | > 90.5 µM | 29.1 µM | > 96.1 µM | > 100 µM | > 100 µM | 24.3 µM | 64.6 µM | 82.1 µM | > 100 µM | > 100 µM |
| c1ccc(C[P+]2(c3ccccc3)CCCCC2)cc1 | > 100 µM | 71.9 µM | – | > 100 µM | > 100 µM | – | > 100 µM | – | – | – |
| CC(C)CC(NC(=O)C(CCC(=O)OCc1ccccc1)NC(=O)OC(C)(C)C)C(=O)NC(COCc1ccccc1)C(=O)NC(Cc1ccccc1)C(=O)O (centres undefined) (Boc-E(OBn)LS(Bn)F-OH; configuration not given here) | > 100 µM | > 100 µM | > 100 µM | > 100 µM | > 100 µM | – | > 100 µM | > 100 µM | – | – |
| COc1cc(C(C)(C)C)c(OC(=O)/C=C/C(=O)O/C=C/[N+](=O)[O-])c(C(C)(C)C)c1 | > 100 µM | > 100 µM | 82.1 µM | > 100 µM | 48.4 µM | 58.1 µM | > 100 µM | > 100 µM | 57.5 µM | 57.8 µM |
| NC(=O)NC1=NCCC(=O)N1CCc1c[nH]c2ccccc12 | 44.5 µM | 34.2 µM | 29.4 µM | 65.1 µM | 73 µM | 41.1 µM | > 100 µM | – | 6.54 µM | 52.8 µM |
| CC(C)OCC(O)COc1cc(=O)oc2ccccc12 (centres undefined) | – | > 100 µM | > 100 µM | > 100 µM | > 100 µM | > 100 µM | > 100 µM | > 100 µM | > 100 µM | > 100 µM |
| O=c1[nH]/c(=C/c2cccs2)c(=O)[nH]/c1=C/c1ccc(OCc2ccccc2)cn1 | 2.66 µM | > 62.6 µM | > 48.9 µM | > 100 µM | 28.8 µM | 0.0182 µM | 25.6 µM | – | 8.35 µM | 0.475 µM |
| C/C(=C/CC[C@](C)(OC1OC(CO)C(O)C(O)C1OC1OC(C)C(O)C(O)C1O)[C@H]1CC[C@]2(C)[C@@H]1CC[C@@H]1[C@@]3(C)CC[C@H](O)C(C)(C)[C@@H]3C[C@H](O)[C@]12C)CO (some centres undefined) | > 100 µM | > 100 µM | > 100 µM | > 100 µM | – | > 100 µM | > 100 µM | > 100 µM | > 100 µM | > 100 µM |
| O=C1CCCn2c3ccccc3c3ccnc1c32 | > 100 µM | > 100 µM | – | – | > 100 µM | – | – | > 100 µM | > 46.6 µM | > 100 µM |
| Oc1cccc(-c2cc(=S)ss2)c1 | – | 19.7 µM | 31.5 µM | 30.1 µM | 31.4 µM | 53.8 µM | 36.2 µM | 28.5 µM | 45.7 µM | 53.7 µM |
| CC1CCC(O)/C=C/C(=O)OC(C)C(O)/C=C/C(=O)O1 (centres undefined) | > 100 µM | > 100 µM | > 100 µM | > 100 µM | > 100 µM | > 100 µM | > 100 µM | > 100 µM | > 100 µM | > 100 µM |
| COC(CO[Si](C)(C)N[Si](C)(C)OCC(OC)c1ccccc1)c1ccccc1 (centres undefined) | > 100 µM | > 100 µM | – | > 100 µM | > 100 µM | > 100 µM | > 100 µM | > 100 µM | > 100 µM | > 100 µM |
| CCOC(=O)n1c2ccccc2c2c(O)c(OC)c3c(c21)C(=O)NC3=O | > 100 µM | > 100 µM | 56.4 µM | > 100 µM | > 100 µM | > 100 µM | 98.5 µM | > 100 µM | 64.7 µM | 81.3 µM |
| NC(=O)c1ccc(N)nc1 | > 125 µM | – | > 400 µM | > 400 µM | > 400 µM | > 400 µM | > 400 µM | > 400 µM | > 400 µM | > 400 µM |
| CC12CCC3=C(CSC4=C3CSc3ccccc34)C1=CCCC2=O (centres undefined) | – | 53 µM | – | > 100 µM | > 100 µM | – | – | – | > 100 µM | – |
| CCOC(=O)Cn1c(=O)c2cc(C)cc3c(Cl)nc4c(OC)c(OC)cc1c4c32 | > 100 µM | > 100 µM | > 100 µM | > 100 µM | > 100 µM | > 100 µM | > 100 µM | > 100 µM | > 100 µM | > 100 µM |
| COc1c(Cl)ccc(Cl)c1-c1nnc(-c2c(Cl)c(Cl)c(Cl)c(Cl)c2-c2nc3ccc(C(=O)c4ccccc4)cc3[nH]2)o1 | > 100 µM | 36 µM | > 100 µM | > 100 µM | > 100 µM | 68 µM | > 100 µM | > 100 µM | > 100 µM | > 100 µM |
| O=c1[nH]nc(Nc2ccccc2)c2nnn(Cc3ccccc3)c12 | 85.3 µM | > 100 µM | > 100 µM | > 100 µM | > 100 µM | > 100 µM | > 100 µM | > 100 µM | > 100 µM | > 100 µM |
| C=CCCCN1C(=O)C2C3c4ccccc4C(C=O)(c4ccccc43)C2C1=O (centres undefined) | – | 23.5 µM | 23.5 µM | > 100 µM | 21.5 µM | – | 26.6 µM | 28.2 µM | 50.9 µM | 58.2 µM |
| O=C(O)CC(Cc1ccccc1)C(=O)O (centres undefined) | – | > 100 µM | – | > 100 µM | > 100 µM | > 100 µM | > 100 µM | – | > 100 µM | > 100 µM |
| CCCCOP(=O)(OCCCC)C(NS(=O)(=O)c1ccccc1)(C(=O)OCC)C(F)(F)F (centres undefined) | 78.1 µM | 33.9 µM | 36.7 µM | 85.1 µM | > 100 µM | 56.3 µM | 88.1 µM | 71.8 µM | > 100 µM | 64.6 µM |
| COc1cc2[nH]c(=O)[nH]c2c2c(C)c[nH]c12 | > 100 µM | > 100 µM | > 100 µM | > 100 µM | > 100 µM | > 100 µM | > 100 µM | – | > 100 µM | > 100 µM |
| Cc1cc([C@H](C#N)c2nc3ccccc3s2)nc(Cl)n1 | 6.54 µM | 45.9 µM | 11 µM | 78.5 µM | 16.3 µM | 19.6 µM | 29.8 µM | 8.76 µM | 31 µM | 10.8 µM |
